Tests used:
[1] = system: brains, heart, liver, muscle, and DRG of the NHPs; test: Maturation of TTM-001 and TTM-002 capsids, NGS enrichment in NHP tissues; assay type: in vivo; settings: relative to AAV9 control
Method in brief: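 Variants carry mutations within and flanking the loop IV peptide insert: positions 450–466 were triplet-randomized, while positions 449–466 received low-frequency point mutations. The combined pool went into two NHPs, and each peptide was scored by NGS enrichment ratio against AAV9.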

[2] = system: brain; test: Matured TTM-001 and TTM-002 variants, NGS enrichment in mouse brain; assay type: in vivo, mice; settings: relative to AAV9 control
[3] = NGS fold-enrichment of matured AAV capsid variants, NHP brain, RNA
[4] = NGS fold-enrichment of RNA, NHP brain
[5] = NGS fold-enrichment, NHP liver DNA
[6] = NGS fold-enrichment, NHP liver RNA
[7] = NGS fold-enrichment, NHP muscle
[8] = NGS fold-enrichment, mouse brain
[9] = NGS fold-enrichment, DRG of NHPs
[10] = NGS fold-enrichment, RNA, brain of NHPs
[11] = NGS fold-enrichment, heart of NHPs
[12] = NGS fold-enrichment, liver DNA of NHPs
[13] = NGS fold-enrichment, liver RNA of NHPs
[14] = NGS fold-enrichment, muscle of NHPs
[15] = NGS fold-enrichment, brain of mice

Sequence | Fold Enrichment relative to AAV9, Brain (NHP) [1, 4] [fold] | Fold Enrichment relative to AAV9, DRG (NHP) ([1]; NGS fold-enrichment, NHP DRG) [fold] | Fold Enrichment relative to AAV9, Heart (NHP) ([1]; NGS fold-enrichment, NHP heart) [fold] | Fold Enrichment relative to AAV9, Liver DNA (NHP) [1, 5] [fold] | Fold Enrichment relative to AAV9, Liver RNA (NHP) [1, 6] [fold] | Fold Enrichment relative to AAV9, Muscle (NHP) [1, 7] [fold] | Fold Enrichment relative to AAV9, Brain (Mouse) [2, 8] [fold] | Fold Enrichment relative to AAV9, DRG (NHP) [1, 9] [fold] | Fold Enrichment relative to AAV9, Brain (NHP) [1, 10] [fold] | Fold Enrichment relative to AAV9, Heart (NHP) [1, 11] [fold] | Fold Enrichment relative to AAV9, Liver DNA (NHP) [1, 12] [fold] | Fold Enrichment relative to AAV9, Liver RNA (NHP) [1, 13] [fold] | Fold Enrichment relative to AAV9, Muscle (NHP) [1, 14] [fold] | Fold Enrichment relative to AAV9, Brain (Mouse) [2, 15] [fold] | further results
KTINGSGSPHSKAGDSQT | – | – | – | – | – | – | – | – | – | – | – | – | – | – | Fold Enrichment relative to AAV9, Brain (NHP) [1, 3]: 50.457 fold; Fold Enrichment relative to AAV9, DRG (NHP) ([1]; NHP DRG): 0.614 fold; Fold Enrichment relative to AAV9, Heart (NHP) ([1]; NHP heart): 0.236 fold; Fold Enrichment relative to AAV9, Liver DNA (NHP) ([1]; NHP liver, DNA): 0.071 fold; Fold Enrichment relative to AAV9, Liver RNA (NHP) ([1]; NHP liver, RNA): 1.062 fold; Fold Enrichment relative to AAV9, Muscle (NHP) ([1]; NHP muscle): 0.008 fold; Fold Enrichment relative to AAV9, Brain (Mouse) ([2]; mouse brain): 74.355 fold
KTINGSGSPHSKAQRMNT | – | – | – | – | – | – | – | – | – | – | – | – | – | – | Fold Enrichment relative to AAV9, Brain (NHP) [1, 3]: 50.686 fold; Fold Enrichment relative to AAV9, DRG (NHP) ([1]; NHP DRG): 0.000 fold; Fold Enrichment relative to AAV9, Heart (NHP) ([1]; NHP heart): 108.747 fold; Fold Enrichment relative to AAV9, Liver DNA (NHP) ([1]; NHP liver, DNA): 0.264 fold; Fold Enrichment relative to AAV9, Liver RNA (NHP) ([1]; NHP liver, RNA): 0.943 fold; Fold Enrichment relative to AAV9, Muscle (NHP) ([1]; NHP muscle): 0.019 fold; Fold Enrichment relative to AAV9, Brain (Mouse) ([2]; mouse brain): 97.975 fold
KNVNGSGSPHSKAQNQQT | – | – | – | – | – | – | – | – | – | – | – | – | – | – | Fold Enrichment relative to AAV9, Brain (NHP) [1, 3]: 58.481 fold; Fold Enrichment relative to AAV9, DRG (NHP) ([1]; NHP DRG): 0.000 fold; Fold Enrichment relative to AAV9, Heart (NHP) ([1]; NHP heart): 0.000 fold; Fold Enrichment relative to AAV9, Liver DNA (NHP) ([1]; NHP liver, DNA): 0.166 fold; Fold Enrichment relative to AAV9, Liver RNA (NHP) ([1]; NHP liver, RNA): 0.917 fold; Fold Enrichment relative to AAV9, Muscle (NHP) ([1]; NHP muscle): 0.000 fold; Fold Enrichment relative to AAV9, Brain (Mouse) ([2]; mouse brain): 53.379 fold
KTINGSGSPHTKAQNPPT | 147.061 | 0.000 | 0.727 | 0.000 | 0.000 | 0.000 | 34.425 | – | – | – | – | – | – | – | –
KTINGTGSPHSKAQNHQI | 77.089 | 0.171 | 0.000 | 0.166 | 0.000 | 0.000 | 54.281 | 0.171 | 77.089 | 0.000 | 0.166 | 0.000 | 0.000 | 54.281 | –
KNCLGSGSPHSKAQNQQT | – | – | – | – | – | – | – | 0.000 | 61.442 | 0.036 | 0.026 | 1.849 | 0.000 | 82.488 | –
KTVNGSGSPHSKSQNQLT | 101.327 | 0.000 | 0.035 | 0.025 | 0.000 | 0.000 | 80.716 | 0.000 | 101.327 | 0.035 | 0.025 | 0.000 | 0.000 | 80.716 | –
KAINGHDSPHKSGPRQQT | 145.142 | 0.000 | 0.408 | 0.000 | 0.000 | 0.000 | 8.259 | – | – | – | – | – | – | – | –
KTISGHDSPHKTGHNQQT | 92.490 | 0.000 | 0.233 | 0.000 | 0.730 | 0.057 | 8.823 | – | – | – | – | – | – | – | –
KTINGSGSPHSKALNRQS | 96.843 | 0.136 | 0.532 | 0.178 | 0.042 | 0.000 | 55.945 | 0.136 | 96.843 | 0.532 | 0.178 | 0.042 | 0.000 | 55.945 | –
KTTNGHDSPHKSGQTQLT | 115.637 | 0.000 | 0.283 | 0.321 | 0.052 | 0.000 | 17.885 | – | – | – | – | – | – | – | –
KTINGSGSPHSKSQNQHI | – | – | – | – | – | – | – | 0.000 | 59.438 | 0.099 | 0.108 | 0.111 | 0.000 | 76.025 | –
KTENKSGSPHSKAQNQQT | 103.854 | 0.000 | 0.037 | 0.119 | 0.000 | 0.000 | 31.182 | – | – | – | – | – | – | – | –
KTINGSGSPHSKTKSQQT | – | – | – | – | – | – | – | 0.000 | 70.891 | 0.568 | 0.496 | 0.418 | 0.045 | 83.923 | –
KTVPTSGSPHSKAQNQQT | – | – | – | – | – | – | – | – | – | – | – | – | – | – | Fold Enrichment relative to AAV9, Brain (NHP) [1, 3]: 51.348 fold; Fold Enrichment relative to AAV9, DRG (NHP) ([1]; NHP DRG): 0.013 fold; Fold Enrichment relative to AAV9, Heart (NHP) ([1]; NHP heart): 0.000 fold; Fold Enrichment relative to AAV9, Liver DNA (NHP) ([1]; NHP liver, DNA): 0.338 fold; Fold Enrichment relative to AAV9, Liver RNA (NHP) ([1]; NHP liver, RNA): 1.017 fold; Fold Enrichment relative to AAV9, Muscle (NHP) ([1]; NHP muscle): 0.000 fold; Fold Enrichment relative to AAV9, Brain (Mouse) ([2]; mouse brain): 102.651 fold
KSINGHDSPHKSGQRQHT | 80.132 | 0.000 | 0.357 | 0.000 | 0.000 | 0.000 | 9.851 | – | – | – | – | – | – | – | –
